According to patent US11072588B2, “Barbituric acid derivatives comprising cationic and lipophilic groups” (UNIVERSITETET I TROMSØ—NORGES ARKTISKE UNIVERSITET, priority 2017, dated 2021):

Assays:
[1] = tested on: S. epidermidis; test: Anti-biofilm activity (inhibition of biofilm formation); format: cell-based; details: Staphylococcus epidermidis, read-out: Anti-biofilm IC50
[2] = tested on: K. pneumoniae 50625602; test: MIC, multi-resistant clinical isolate; format: cell-based, Klebsiella pneumoniae
Method: (§1) Working solutions of the test derivatives were prepared with up to 100% DMSO and stored at −20° C. If necessary, the solutions were heated to 40-80° C. before testing to facilitate complete dissolution. Double-distilled water was used in all dilutions prepared. […] A microdilution susceptibility test was used for MIC determination according to Clinical and Laboratory Standards Institute, “Methods for Dilution Antimicrobial Sisceptibility Tests for Bacteria That Graw Aerobically”, Approved Standard M07-A9, edition 2012, with modifications as described by Igumnova et al (Bioorg Med Chem, 2016, 24 (22), 5884-5894).
(§2) Briefly, the bacterial inoculum was adjusted to approximately 2.5-3×10^4 cells/mL in Mueller-Hinton broth (MHB, Difco Laboratories, USA), and incubated in a ratio of 1:1 with test derivatives in polystyrene 96-well flat-bottom microplates (NUNC, Roskilde, Denmark). Positive growth control (without test derivatives) and negative control (without bacteria) were included. The reference antibiotic was oxytetracycline hydrochloride (Sigma Aldrich, Saint Louis, Mo., USA). The microplates were incubated in an EnVision microplate reader (Perkin-Elmer, Turku, Finland) placed in an incubator set to 35° C. for 48 h. The MIC value was defined as the lowest concentration of derivative resulting in no bacterial growth as determined by OD600 measurement. All derivatives were tested in three parallels.
(§3) The MIC was determined as explained above with some exceptions; working solutions of test derivatives were prepared from concentrated DMSO stocks stored at room temperature, the density of the bacterial inoculum was increased 40× to 1-1.2×10^6 cells/mL, enterococci were incubated in Brain Heart Infusion broth (BHIB, Difco Laboratories, USA), the microplates were incubated for 24 h, and the derivatives were tested in four parallels.

[3] = tested on: K. pneumoniae 50531633; test: MIC, multi-resistant clinical isolate; format: cell-based, Klebsiella pneumoniae; details: K. pneumoniae 50531633, resistant to colistin
Method: as §1, §2, §3

[4] = tested on: K. pneumoniae K66-45; test: MIC, multi-resistant clinical isolate; format: cell-based, Klebsiella pneumoniae
Method: as §1, §2, §3

[5] = tested on: K. pneumoniae 50667959; test: MIC, multi-resistant clinical isolate; format: cell-based, Klebsiella pneumoniae
Method: as §1, §2, §3

[6] = tested on: Escherichia coli ATCC 25922; test: MIC assay, antibiotic susceptible reference strain; format: cell-based; details: Escherichia coli, ATCC25922, read-out: Antimicrobial activity (MIC) E. c
Outline: (§4)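 Broth microdilution followed CLSI M07-A9 with modifications: inoculum ~2.5-3×10^4 cells/mL in Mueller-Hinton broth, mixed 1:1 with test derivative, incubated 48 h at 35 °C. MIC was the lowest concentration giving no growth by OD600, tested in three parallels, with oxytetracycline as reference antibiotic.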

[7] = tested on: Staphylococcus aureus ATCC 9144; test: MIC assay, antibiotic susceptible reference strain; format: cell-based; details: Staphylococcus aureus, ATCC9144, read-out: Antimicrobial activity (MIC) S. a
Outline: as §4

[8] = tested on: Pseudomonas aeruginosa PA01, DSM 19880 (ATCC 15692); test: MIC assay, antibiotic susceptible reference strain; format: cell-based; details: Pseudomonas aeruginosa, read-out: Antimicrobial activity (MIC) P. a
Outline: as §4

[9] = tested on: Corynebacterium glutamicum ATCC 13032; test: MIC assay, antibiotic susceptible reference strain; format: cell-based; details: Corynebacterium glutamicum, ATCC13032, read-out: Antimicrobial activity (MIC) C. g
Outline: as §4

[10] = tested on: E. coli 50857972; test: MIC, multi-resistant clinical isolate; format: cell-based, Escherichia coli
Method: as §1, §2, §3

[11] = tested on: E. coli 50579417; test: MIC, multi-resistant clinical isolate; format: cell-based, Escherichia coli
Method: as §1, §2, §3

[12] = tested on: E. coli 50739822; test: MIC, multi-resistant clinical isolate; format: cell-based, Escherichia coli
Method: as §1, §2, §3

[13] = tested on: E. coli 50639799; test: MIC, multi-resistant clinical isolate; format: cell-based, Escherichia coli
Method: as §1, §2, §3

[14] = tested on: E. coli 50676002; test: MIC, multi-resistant clinical isolate; format: cell-based, Escherichia coli; details: E. coli 50676002
Method: as §1, §2, §3

[15] = tested on: S. aureus NCTC 10442; test: MIC, multi-resistant clinical isolate; format: cell-based, Staphylococcus aureus
Method: as §1, §2, §3

[16] = tested on: S. aureus IHT 99040; test: MIC, multi-resistant clinical isolate; format: cell-based, Staphylococcus aureus
Method: as §1, §2, §3

[17] = tested on: S. aureus strain WIS; test: MIC, multi-resistant clinical isolate; format: cell-based, Staphylococcus aureus
Method: as §1, §2, §3

[18] = tested on: S. aureus strain 85/2082; test: MIC, multi-resistant clinical isolate; format: cell-based, Staphylococcus aureus
Method: as §1, §2, §3

[19] = tested on: S. aureus N315; test: MIC, multi-resistant clinical isolate; format: cell-based, Staphylococcus aureus
Method: as §1, §2, §3

[20] = tested on: P. aeruginosa K44-24; test: MIC, multi-resistant clinical isolate; format: cell-based, Pseudomonas aeruginosa
Method: as §1, §2, §3

[21] = tested on: P. aeruginosa 50692520; test: MIC, multi-resistant clinical isolate; format: cell-based, Pseudomonas aeruginosa
Method: as §1, §2, §3

[22] = tested on: P. aeruginosa K34-73; test: MIC, multi-resistant clinical isolate; format: cell-based, Pseudomonas aeruginosa; details: P. aeruginosa K34-73
Method: as §1, §2, §3

[23] = tested on: P. aeruginosa K34-7; test: MIC, multi-resistant clinical isolate; format: cell-based, Pseudomonas aeruginosa
Method: as §1, §2, §3

[24] = tested on: P. aeruginosa 50692172; test: MIC, multi-resistant clinical isolate; format: cell-based, Pseudomonas aeruginosa
Method: as §1, §2, §3

[25] = Klebsiella pneumoniae, read-out: Antimicrobial activity (MIC)
[26] = Escherichia coli, read-out: Antimicrobial activity (MIC)
[27] = Pseudomonas aeruginosa, read-out: Antimicrobial activity (MIC)

N=C(N)NCCCCN1C(=O)N(CCCCNC(=N)N)C(=O)C(Cc2cc(Br)cc(Br)c2)(Cc2cc(Br)cc(Br)c2)C1=O [8(ii), 1,1′-(4,4′-(5,5-bis(3,5-dibromobenzyl)-2,4,6-trioxodihydropyrimidine-1,3(2H,4H)-diyl)bis(butane-4,1-diyl))diguanidine]
1 µg/mL: IC50 [1] | MIC [7]
(4): selectivity index (EC50/MIC) ([21]; RBC EC50 / MIC)
(7): selectivity index (EC50/MIC) ([20]; RBC EC50 / MIC) | selectivity index (EC50/MIC) ([22]; RBC EC50 / MIC) | selectivity index (EC50/MIC) ([23]; RBC EC50 / MIC, P. aeruginosa K34-7) | selectivity index (EC50/MIC) ([24]; RBC EC50 / MIC)
8 µg/mL: MIC ([20]; Pseudomonas aeruginosa, K4424, read-out: Antimicrobial activity (MIC)) | MIC ([22]; Pseudomonas aeruginosa, K3473, read-out: Antimicrobial activity (MIC)) | MIC ([23]; Pseudomonas aeruginosa, K347, read-out: Antimicrobial activity (MIC)) | MIC [24, 27]
(28): selectivity index (EC50/MIC) ([15]; RBC EC50 / MIC, S. aureus NCTC 10442) | selectivity index (EC50/MIC) ([16]; RBC EC50 / MIC) | selectivity index (EC50/MIC) ([17]; RBC EC50 / MIC, S. aureus strain WIS) | selectivity index (EC50/MIC) ([18]; RBC EC50 / MIC, S. aureus strain 85/2082) | selectivity index (EC50/MIC) ([19]; RBC EC50 / MIC, S. aureus N315)
16 µg/mL: MIC [21, 27]
0.25 µg/mL: MIC [9]
4 µg/mL: MIC [2, 25] | MIC ([3]; Klebsiella pneumoniae, 24 h, read-out: Antimicrobial activity (MIC)) | MIC ([4]; Klebsiella pneumoniae, K6645, read-out: Antimicrobial activity (MIC)) | MIC [5, 25] | MIC [8] | MIC [10, 26] | MIC [11, 26] | MIC [12, 26] | MIC [13, 26] | MIC [14, 26]
(14): selectivity index (EC50/MIC) ([2]; RBC EC50 / MIC) | selectivity index (EC50/MIC) ([3]; RBC EC50 / MIC) | selectivity index (EC50/MIC) ([4]; RBC EC50 / MIC, K. pneumoniae K66-45) | selectivity index (EC50/MIC) ([5]; RBC EC50 / MIC) | selectivity index (EC50/MIC) ([10]; RBC EC50 / MIC) | selectivity index (EC50/MIC) ([11]; RBC EC50 / MIC) | selectivity index (EC50/MIC) ([12]; RBC EC50 / MIC) | selectivity index (EC50/MIC) ([13]; RBC EC50 / MIC) | selectivity index (EC50/MIC) ([14]; RBC EC50 / MIC)
2 µg/mL: MIC [6] | MIC ([15]; Staphylococcus aureus, NCTC10442, read-out: Antimicrobial activity (MIC)) | MIC ([16]; Staphylococcus aureus, IHT99040, read-out: Antimicrobial activity (MIC)) | MIC ([17]; Staphylococcus aureus, read-out: Antimicrobial activity (MIC)) | MIC ([18]; Staphylococcus aureus, 85/2082, read-out: Antimicrobial activity (MIC)) | MIC ([19]; Staphylococcus aureus, N315, read-out: Antimicrobial activity (MIC))
